Source: ChEMBL document CHEMBL3856285, “Recent progress in the identification of adenosine monophosphate-activated protein kinase (AMPK) activators” (Bioorg Med Chem Lett, 2016)

Legend:
[1] = molecular target: T1, 5'-AMP-activated protein kinase subunit beta-2 (Homo sapiens, UniProt O43741); assay: Activation of human recombinant AMPK beta2 expressed in African green monkey COS7 cells or baculovirus infected insect cells assessed as increase in biotinylated […] (1 to 120 residues) peptide phosphorylation at Ser-79 residue measured after 60 mins by Alphascreen assay; set-up: species or system COS-7
T1 sequence (O43741 whole entry): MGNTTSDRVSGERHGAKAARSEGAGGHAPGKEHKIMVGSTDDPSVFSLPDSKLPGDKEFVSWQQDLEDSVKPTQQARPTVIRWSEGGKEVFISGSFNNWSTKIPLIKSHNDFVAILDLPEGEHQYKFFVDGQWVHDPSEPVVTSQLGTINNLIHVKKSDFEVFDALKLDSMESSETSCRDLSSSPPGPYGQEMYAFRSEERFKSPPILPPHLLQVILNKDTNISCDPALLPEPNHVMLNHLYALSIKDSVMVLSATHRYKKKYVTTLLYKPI

[2] = molecular target: T2, 5'-AMP-activated protein kinase subunit beta-1 (Homo sapiens, UniProt Q9Y478); assay: Activation of human recombinant AMPK beta1 expressed in African green monkey COS7 cells or baculovirus infected insect cells assessed as increase in biotinylated […] (1 to 120 residues) peptide phosphorylation at Ser-79 residue measured after 60 mins by Alphascreen assay; set-up: species or system COS-7
T2 sequence (Q9Y478 whole entry): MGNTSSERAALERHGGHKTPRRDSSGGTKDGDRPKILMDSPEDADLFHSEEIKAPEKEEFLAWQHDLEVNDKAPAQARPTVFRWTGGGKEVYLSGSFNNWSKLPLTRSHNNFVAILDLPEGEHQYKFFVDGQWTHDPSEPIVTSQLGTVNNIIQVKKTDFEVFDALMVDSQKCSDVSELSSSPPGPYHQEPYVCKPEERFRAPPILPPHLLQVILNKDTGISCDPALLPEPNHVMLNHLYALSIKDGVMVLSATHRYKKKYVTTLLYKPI

[3] = molecular target: T3, AMP-activated protein kinase (AMPK) alpha-1/beta-1/gamma-1 (Homo sapiens, UniProt P54619+Q13131+Q9Y478); assay: Activation of full length human recombinant AMPK alpha1/beta1/gamma1 expressed in baculovirus infected sf21 cells using 5'-FAM-SAMS peptide substrate after 45 mins by fluorescence assay
[4] = molecular target: T4, AMP-activated protein kinase (AMPK) alpha-1/beta-1/gamma-1 (Homo sapiens) (UniProt P54619+Q9Y478+Q13131); assay: Activation of full length human recombinant AMPK alpha1/beta1/gamma1 expressed in baculovirus infected sf21 cells using 5'-FAM-SAMS peptide substrate after 45 mins by fluorescence assay relative to AMP
[5] = molecular target: AMPK alpha2/beta1/gamma1 (Homo sapiens) (UniProt P54646+P54619+Q9Y478); assay: Activation of full length human recombinant AMPK alpha2/beta1/gamma1 expressed in baculovirus infected sf21 cells using 5'-FAM-SAMS peptide substrate after 45 mins by fluorescence assay relative to AMP
Rattus norvegicus [6] = species on record: Rattus norvegicus
Description: Allosteric activation of rat liver AMPK in presence of ATP relative to control

[7] = molecular target: T3, AMP-activated protein kinase (AMPK) alpha-1/beta-1/gamma-1; assay: Activation of full length human recombinant AMPK alpha1/beta1/gamma1 expressed in baculovirus infected sf21 cells using SAMS peptide substrate after 30 mins in presence of [33P]ATP by TopCount analysis
[8] = molecular target: T4, AMP-activated protein kinase (AMPK) alpha-1/beta-1/gamma-1 (Homo sapiens); assay: Activation of full length human recombinant AMPK alpha1/beta1/gamma1 expressed in baculovirus infected sf21 cells using SAMS peptide substrate after 30 mins in presence of [33P]ATP by TopCount analysis relative to AMP
[9] = molecular target: T3, AMP-activated protein kinase (AMPK) alpha-1/beta-1/gamma-1; assay: Binding affinity for full length human N-terminal His/BAP-tagged AMPK alpha1/beta1/gamma1 expressed in Escherichia coli BL21-CodonPlus by surface plasmon resonance method
Mus musculus = assay: Antidiabetic activity in […] ob/ob mouse model assessed as reduction in blood glucose level at 150 mg/kg, po bid for 8 days relative to control; type: functional; details: 192 h
[10] = molecular target: T5, AMP-activated protein kinase, AMPK (Homo sapiens) (UniProt P54646+O43741+P54619+Q9UGJ0+Q9Y478+Q13131+Q9UGI9); assay: Activation of AMPK (unknown origin) assessed as residual activity at 30 uM using AMARAA peptide after 30 mins by DELFIA assay relative to control
[11] = molecular target: T4, AMP-activated protein kinase (AMPK) alpha-1/beta-1/gamma-1 (Homo sapiens); assay: (§1) Activation of full length human phosphorylated His-tagged AMPK alpha1/beta1/gamma1 expressed in Escherichia coli BL21-CodonPlus (DE3)-RIPL using SAMS peptide substrate preincubated for 15 mins followed by PP2A addition for 90 mins followed by substrate addition measured after 60 mins in presence of [33P]ATP by scintillation counting method relative to AMP
[12] = molecular target: T3, AMP-activated protein kinase (AMPK) alpha-1/beta-1/gamma-1; assay: as §1, with “method” for “method relative to AMP”
[13] = molecular target: AMP-activated protein kinase, AMPK; assay: Activation of recombinant AMPK (unknown origin) after 30 mins in presence of [gamma33P]ATP by scintillation proximity assay; set-up: species or system Homo sapiens
[14] = molecular target: AMPK alpha1/beta1/gamma2 (Homo sapiens) (UniProt Q9UGJ0+Q9Y478+Q13131); assay: Activation of human recombinant AMPK alpha1/beta1/gamma2 expressed in Escherichia coli assessed as residual activity at 30 uM using AMARAA peptide relative to control
[15] = molecular target: T3, AMP-activated protein kinase (AMPK) alpha-1/beta-1/gamma-1; assay: Activation of full length human His/GST-tagged AMPK alpha1/beta1/gamma1 expressed in baculovirus expression system after 1 hr by Z'Lyte assay
[16] = molecular target: T5, AMP-activated protein kinase, AMPK (Homo sapiens); assay: Activation of human recombinant AMPK assessed as increase in ADP accumulation using SAMS peptide after 30 mins by fluorescence assay
[17] = molecular target: T6, 5'-AMP-activated protein kinase subunit beta-1 (Homo sapiens) (UniProt Q9Y478); assay: Activation of AMPK beta1 in human HepG2 cells assessed as increase in phospho-ACC1 level at 1 uM after 2 hrs by ELISA relative to control; type: cell-based
T6 sequence (whole entry): T2 sequence (Q9Y478 whole entry)

[18] = molecular target: T7, 5'-AMP-activated protein kinase catalytic subunit alpha-2/beta-1/gamma-2 (Homo sapiens, UniProt P54646+Q9UGJ0+Q9Y478); assay: (§2) Activation of recombinant human His-tagged AMPK alpha2 (2 to 552 residues)/beta1 (2 to 270 residues)/gamma2 (2 to 569 residues) expressed in baculovirus infected sf21 cells preincubated for 30 mins followed by biotinylated ACC-CREBp peptide substrate addition measured after 45 mins by HTRF assay
Target sequence in this assay (P54646 whole entry, one chain of several, the tested form may be a part): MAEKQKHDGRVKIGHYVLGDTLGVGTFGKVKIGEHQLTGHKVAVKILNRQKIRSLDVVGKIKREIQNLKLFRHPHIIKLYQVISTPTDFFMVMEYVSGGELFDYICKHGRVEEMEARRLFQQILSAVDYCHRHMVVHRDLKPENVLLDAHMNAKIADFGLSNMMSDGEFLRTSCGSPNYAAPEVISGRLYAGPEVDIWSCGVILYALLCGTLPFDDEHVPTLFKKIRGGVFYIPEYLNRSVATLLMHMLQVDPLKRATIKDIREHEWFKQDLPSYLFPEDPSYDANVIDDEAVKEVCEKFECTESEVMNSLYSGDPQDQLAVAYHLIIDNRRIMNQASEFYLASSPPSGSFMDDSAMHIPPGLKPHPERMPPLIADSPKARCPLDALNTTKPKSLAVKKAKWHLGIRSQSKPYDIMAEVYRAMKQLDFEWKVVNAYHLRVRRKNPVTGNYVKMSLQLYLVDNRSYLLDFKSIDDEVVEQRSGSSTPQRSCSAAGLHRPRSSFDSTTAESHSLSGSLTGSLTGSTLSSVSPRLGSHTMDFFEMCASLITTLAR
Target sequence in this assay (Q9UGJ0 whole entry, one chain of several, the tested form may be a part): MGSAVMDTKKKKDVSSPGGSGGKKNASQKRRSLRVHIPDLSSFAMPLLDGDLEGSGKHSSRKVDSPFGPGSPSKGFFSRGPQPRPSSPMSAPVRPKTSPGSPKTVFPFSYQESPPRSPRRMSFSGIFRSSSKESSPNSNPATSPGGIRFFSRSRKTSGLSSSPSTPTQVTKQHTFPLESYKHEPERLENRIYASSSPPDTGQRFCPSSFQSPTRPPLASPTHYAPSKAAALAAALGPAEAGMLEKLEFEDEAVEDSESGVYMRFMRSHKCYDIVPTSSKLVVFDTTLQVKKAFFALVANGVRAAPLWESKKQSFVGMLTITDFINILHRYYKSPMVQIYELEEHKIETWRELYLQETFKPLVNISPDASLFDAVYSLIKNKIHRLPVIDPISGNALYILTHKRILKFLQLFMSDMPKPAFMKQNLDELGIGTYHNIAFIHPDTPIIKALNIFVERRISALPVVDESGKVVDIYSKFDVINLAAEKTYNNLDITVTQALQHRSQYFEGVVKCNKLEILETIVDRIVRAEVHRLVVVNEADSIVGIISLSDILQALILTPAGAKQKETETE

[19] = molecular target: T8, 5'-AMP-activated protein kinase subunit beta-2 (Mus musculus) (UniProt Q6PAM0); assay: Activation of AMPK beta2 in mouse C2C12 myotubes assessed as increase in phospho-ACC1 level at 1 uM after 2 hrs by ELISA relative to control
T8 sequence (whole entry): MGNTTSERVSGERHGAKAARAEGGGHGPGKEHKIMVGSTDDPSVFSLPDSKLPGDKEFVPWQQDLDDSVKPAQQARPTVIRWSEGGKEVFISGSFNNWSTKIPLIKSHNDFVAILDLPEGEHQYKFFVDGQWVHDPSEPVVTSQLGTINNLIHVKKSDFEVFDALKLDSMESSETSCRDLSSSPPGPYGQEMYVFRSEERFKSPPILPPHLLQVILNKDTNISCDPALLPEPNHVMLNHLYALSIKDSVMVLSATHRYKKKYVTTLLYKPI

[20] = molecular target: T7, 5'-AMP-activated protein kinase catalytic subunit alpha-2/beta-1/gamma-2; assay: as §2, with “assay relative to AMP” for “assay”
Target sequence in this assay (P54646 whole entry, one chain of several, the tested form may be a part): as the sequence (P54646 whole entry, one chain of several, the tested form may be a part) above
Target sequence in this assay (Q9UGJ0 whole entry partner, one chain of several, the tested form may be a part): as the sequence (Q9UGJ0 whole entry, one chain of several, the tested form may be a part) above

[21] = molecular target: T4, AMP-activated protein kinase (AMPK) alpha-1/beta-1/gamma-1 (Homo sapiens); assay: Activation of full length human recombinant AMPK alpha1/beta1/gamma1 preincubated for 10 mins followed by FL-Peptide 7 addition measured after 2 hrs by fluorescence assay relative to AMP; type: protein-complex assay
[22] = molecular target: T9, AMPK alpha2/beta2/gamma1 (Homo sapiens) (UniProt P54646+O43741+P54619); assay: Activation of full length human His6-tagged AMPK alpha2/beta2/gamma1 expressed in Escherichia coli BL21-CodonPlus (DE3)-RIPL preincubated for 10 mins followed by FL-Peptide 7 substrate addition measured after 2 hrs by fluorescence assay
[23] = molecular target: T9, AMPK alpha2/beta2/gamma1 (Homo sapiens); assay: Activation of full length human His6-tagged AMPK alpha2/beta2/gamma1 expressed in Escherichia coli BL21-CodonPlus (DE3)-RIPL preincubated for 10 mins followed by FL-Peptide 7 substrate addition measured after 2 hrs by fluorescence assay relative to AMP
[24] = molecular target: T4, AMP-activated protein kinase (AMPK) alpha-1/beta-1/gamma-1 (Homo sapiens); assay: Activation of full length human recombinant AMPK alpha1/beta1/gamma1 preincubated for 10 mins followed by FL-Peptide 7 addition measured after 2 hrs by fluorescence assay; type: protein-complex assay
[25] = molecular target: T3, AMP-activated protein kinase (AMPK) alpha-1/beta-1/gamma-1; assay: Activation of human recombinant AMPK alpha1/beta1/gamma1 expressed in Escherichia coli BL21-CodonPlus (DE3)-RIPL using SAMS peptide after 10 mins in presence of [gamma33P]ATP by scintillation counting
[26] = Activation of rat liver AMPK assessed as increase in 33P-phosphorylation of SAMS peptide
[27] = molecular target: T4, AMP-activated protein kinase (AMPK) alpha-1/beta-1/gamma-1 (Homo sapiens); assay: (§3) Activation of human recombinant AMPK GST-tagged alpha1/Myc-tagged beta1/HA-tagged gamma1 expressed in African green monkey COS7 cells assessed as increase in SAMS peptide phosphorylation measured after 10 mins in presence of [gamma33P]ATP by scintillation counting method relative to control; type: cell-based; details: COS-7
[28] = molecular target: T3, AMP-activated protein kinase (AMPK) alpha-1/beta-1/gamma-1; assay: as §3; type: cell-based, COS-7
[29] = molecular target: T9, AMPK alpha2/beta2/gamma1 (Homo sapiens); assay: Activation of full length human His6-tagged AMPK alpha2/beta2/gamma1 expressed in Escherichia coli BL21-CodonPlus (DE3)-RIPL using FL-Peptide 7 substrate incubated for 2 hrs by fluorescence assay
[30] = molecular target: T9, AMPK alpha2/beta2/gamma1 (Homo sapiens); assay: Activation of full length human His6-tagged AMPK alpha2/beta2/gamma1 expressed in Escherichia coli BL21-CodonPlus (DE3)-RIPL using FL-Peptide 7 substrate incubated for 2 hrs by fluorescence assay relative to AMP
Rattus norvegicus [31] = species on record: Rattus norvegicus; assay: Activation of rat liver AMPK assessed as increase in biotinylated AMARAA peptide phosphorylation at 200 uM measured after 30 mins by DELFIA assay relative to control

T3 sequence (P54619 whole entry, one chain of several): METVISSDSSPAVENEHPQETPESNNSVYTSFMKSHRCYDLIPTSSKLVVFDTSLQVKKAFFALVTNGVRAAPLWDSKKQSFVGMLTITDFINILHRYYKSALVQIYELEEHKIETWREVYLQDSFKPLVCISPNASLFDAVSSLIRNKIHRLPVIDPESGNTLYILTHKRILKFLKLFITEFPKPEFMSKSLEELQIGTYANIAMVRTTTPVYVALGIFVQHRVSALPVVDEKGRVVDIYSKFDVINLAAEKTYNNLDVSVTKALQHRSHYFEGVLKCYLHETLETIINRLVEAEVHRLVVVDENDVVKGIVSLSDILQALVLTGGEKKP
T3 sequence (Q13131 whole entry, one chain of several): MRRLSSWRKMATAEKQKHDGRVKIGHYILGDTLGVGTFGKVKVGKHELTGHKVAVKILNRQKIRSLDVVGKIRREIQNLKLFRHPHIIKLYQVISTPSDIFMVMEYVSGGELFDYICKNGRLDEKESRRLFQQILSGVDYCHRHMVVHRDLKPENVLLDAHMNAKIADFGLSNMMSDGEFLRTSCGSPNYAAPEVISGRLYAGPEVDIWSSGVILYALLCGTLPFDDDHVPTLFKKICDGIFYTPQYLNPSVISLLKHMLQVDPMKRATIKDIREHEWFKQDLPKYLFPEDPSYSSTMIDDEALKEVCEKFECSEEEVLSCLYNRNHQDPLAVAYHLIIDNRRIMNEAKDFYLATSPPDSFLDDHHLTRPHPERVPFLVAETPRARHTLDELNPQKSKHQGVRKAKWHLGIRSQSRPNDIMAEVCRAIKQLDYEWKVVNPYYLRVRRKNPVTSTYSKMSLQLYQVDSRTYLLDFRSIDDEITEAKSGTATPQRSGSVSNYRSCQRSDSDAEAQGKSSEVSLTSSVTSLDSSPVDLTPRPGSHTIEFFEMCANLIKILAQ
T4 sequence (P54619 whole entry, one chain of several): as the sequence (P54619 whole entry, one chain of several) above
T4 sequence (Q13131 whole entry partner, one chain of several): as the sequence (Q13131 whole entry, one chain of several) above
T9 sequence (P54619 whole entry, looked up, one chain of several): as the sequence (P54619 whole entry, one chain of several) above
T9 sequence (P54646 whole entry, looked up, one chain of several): as the sequence (P54646 whole entry, one chain of several, the tested form may be a part) above
Chain of AMPK alpha2/beta1/gamma1 (Homo sapiens) (P54619 whole entry partner, one chain of several): as the sequence (P54619 whole entry, one chain of several) above
Chain of AMPK alpha2/beta1/gamma1 (Homo sapiens) (P54646 whole entry, one chain of several): as the sequence (P54646 whole entry, one chain of several, the tested form may be a part) above
Chain of AMPK alpha1/beta1/gamma2 (Homo sapiens) (Q13131 whole entry partner, one chain of several): as the sequence (Q13131 whole entry, one chain of several) above
Chain of AMPK alpha1/beta1/gamma2 (Homo sapiens) (Q9UGJ0 whole entry, one chain of several): as the sequence (Q9UGJ0 whole entry, one chain of several, the tested form may be a part) above

## O=C(O)c1c[nH]c2ccc(-c3ccc(-c4c(O)cccc4O)cc3)cc12
[1]
  EC50: < 5 µM
[2]
  EC50: < 500 nM

## Cc1ccc(Oc2nc3nc(-c4ccc(N5CCCC5)cc4)c(Cl)cc3[nH]2)cc1C(=O)O
[3]
  EC50: 1 nM
[4]
  %max: 681%

## N#Cc1ccc(-c2ccc(-c3nc4nc(O[C@@H]5CO[C@H]6[C@@H]5OC[C@H]6O)[nH]c4cc3Cl)cc2)c(F)c1
[5]
  %max: 304%

## O=C(O)c1ccccc1O
Rattus norvegicus [6]
  A0.5: 1 mM

## Cc1ccc(Oc2nc3cc(-c4ccc(N5CCOCC5)cc4)c(Cl)cc3[nH]2)cc1P(=O)(O)O
[7]
  EC50: 1.2 nM
[8]
  %max: 224%

## N#Cc1c(O)c2c(-c3ccc(-c4ccccc4O)cc3)c(Cl)sc2[nH]c1=O
[9]
  Kd: 74 nM

## O=c1[nH]c2sc(Cl)c(-c3ccc4c(c3O)CCCC4)c2c(O)c1-c1ccccc1
Mus musculus
  inhibition in vivo at 150 mg/kg: 41%
[10]
  Activity: > 130%

## O=C(O)c1n[nH]c2cc(Cl)c(-c3ccc(C4(O)CCC4)cc3)cc12
[11]
  %max: 80%
[12]
  EC50: 8.3 nM

## O=C(O)c1ccc2c(c1)C1(CC1)CC(c1cc(Cl)ccc1F)N2 (stereo unspecified)
[13]
  EC50: 1240 nM

## Cc1ccc(-c2c(O)c3c(-c4ccc5ccccc5c4O)c(Cl)sc3[nH]c2=O)cc1
[14]
  Activity: > 90%

## Nc1nc(-c2ccc(-n3c(Cl)cc4[nH]c(=O)n(-c5cccc(C(=O)O)c5)c(=O)c43)cc2)cs1
[15]
  EC50: 631 nM

## CC1(C)Cc2cc(C(=O)O)ccc2NC1c1cccc(N2C(=O)OCC2(C)C)c1 (stereo unspecified)
[16]
  EC30: 1.15 µM

## COc1cc(C(O)=C2C(=O)Nc3cc(Cl)c(-c4ccc5c(ccn5C)c4)cc32)on1
[17]
  Activity: 132%
[18]
  EC50: 0.7 nM
[19]
  Activity: 114%
[20]
  Emax: 256%

## Cc1ccc(Oc2nc3nc(-c4ccc(-c5ccccc5O)cc4)c(Cl)cc3[nH]2)cc1C(=O)O
[21]
  %max: 355%
[22]
  EC150: 4.3 nM
[23]
  %max: 292%
[24]
  EC150: 0.42 nM

## Cc1ccc(Oc2nc3cc(-c4ccc5c(ccn5C)c4)c(Cl)cc3[nH]2)cc1C(=O)O
[8]
  %max: 241%

## Cc1cc(-c2ccc(/C=C3\S/C(=N\c4ccc(Cl)c(C(=O)O)c4)NC3=O)o2)c([N+](=O)[O-])cc1C
[25]
  EC50: 300 nM

## Cc1cc(-c2c(O)c3cc(-c4ccc(N(C)C)cc4)c(Cl)cc3[nH]c2=O)on1
[15]
  EC50: 39.8 nM

## N#Cc1c(O)c2c(-c3ccc(-c4ccccc4O)cc3)csc2[nH]c1=O
[26]
  EC50: 800 nM

## CC1(C)CC(c2ccccc2NS(=O)(=O)c2cccc(F)c2)Nc2ccc(C(F)(F)F)cc21 (stereo unspecified)
[16]
  EC30: 1.14 µM

## CC(C)(O)c1ccc(-c2cc3nc(O[C@H]4CO[C@H](CO)[C@@H](O)C4)[nH]c3cc2Cl)cc1
[3]
  EC50: 4 nM
[4]
  %max: 379%

## C(=N\c1cnc2ccccc2c1)/c1ccc2ccccc2n1
[27]
  fold change (FC): 2.7
[28]
  EC50: 1800 nM

## CC(C)(C(=O)O)[C@H]1CC[C@H](Oc2nc3nc(-c4ccc(C5(CO)CC5)cc4)c(Cl)cc3[nH]2)CC1
[21]
  %max: 257%
[22]
  EC150: 5 nM
[23]
  %max: 237%
[24]
  EC150: 5.6 nM

## O[C@@H]1CO[C@H]2[C@@H]1OC[C@H]2Oc1cc2nc(-c3c(F)cc(N4CCOCC4)cc3F)c(F)cc2[nH]1
[29]
  EC150: 8.8 nM
[30]
  Emax: 729%

## COc1ccc(NC(=O)Nc2ccc(Cn3cnc(O)c3C(N)=O)cc2)cc1
Rattus norvegicus [31]
  Activity: 229%
